Patent US11420922B2, “Hydroxylated tropolone inhibitors of nucleotidyl transferases in herpesvirus and Hepatitis B and uses therefor” (Saint Louis University, priority 2015, dated 2022)

How the values were obtained:
[1] = system: patient-derived RNAseH enzymes (genotypes B, C and D); assay: Biochemical RNAseH assay with patient-derived variant enzymes; set-up: species or system Hepatitis B virus
Excerpt: Four variant patient-derived RNAseH enzymes were expressed as recombinant enzymes, purified, and tested in an RNAseH assay with compounds #1 (FIG. 7A) and #46 (FIG. 7B) at their respective IC50s.
HBV has at least 8 genotypes differing in sequence by 8%. Genetic diversity in the RNAseH domain is about 6%, which is easily high enough to modulate viral sensitivity to RNAseH inhibitors. Therefore, the inventors tested the RNAseH inhibitors #1 [2-hydroxyisoquinoline-1,3(2H,4H)-dione], an HID, and #46 (β-thujaplicinol), an α-hydroxytropolone, for the ability to inhibit variant RNAseHs. Twelve purified, patient-derived RNAseH enzymes (4 from each genotypes B, C and D) were tested with the compounds at their respective IC50 values in a biochemical RNAseH assay. […] Therefore, HBV's high genetic variation is unlikely to present a substantial barrier to drug development.

HSV-1 [2] = details: 5 μM or less; cited from earlier work
HSV-2 [3] = details: 5 μM or less; cited from earlier work
HBV replication = assay: Chou-Talalay combination of RNAseH inhibitors with Lamivudine against HBV replication; type: cell-based, Hepatitis B virus; details: CI <1.0 synergy, ~1.0 additive, >1.0 antagonism
Excerpt: Additive interactions are shown with the red line, synergistic interactions below the line, and antagonistic interactions are above the line.
Current nucleos(t)ide analog therapy for HBV has converted hepatitis type B from an implacably progressing illness to a controllable disease. However, patients are only very rarely cured, in part due to the incomplete inhibition of HBV replication. The inventors hypothesized that the novel RNaseH inhibitors would work synergistically with the existing nucleos(t)ide analogs because the two classes of drugs target physically distinct active sites on the viral polymerase protein. […] RNAseH inhibitors from two different chemical classes were employed, compound #1 [2-hydroxyisoquinoline-1,3(2H,4H)-dione], an HID, and #46 (β-thujaplicinol), an α-hydroxytropolone, were tested. Chou-Talaly analysis yields a combination index (CI). CI values<1.0 indicate synergy, CIs of approximately 1.0 indicate additive interactions, and CI values>1.0 indicate antagonism. CI values are calculated at various efficacy levels (EC50, EC75, EC90, and EC95), and a weighted CI value favoring higher efficacy levels is also generated. FIGS. 6A & 6B show the results of four experiments employing compound #1 and three with compound #46. […] Therefore, RNAseH inhibitors act strongly synergistically with an approved nucleos(t)ide analog drug against HBV.

[4] = Mouse liver microsome assay; type: in vitro ADME; details: 1 μM in mouse liver microsomes; for ER: extraction ratio
Experimental: Microsomal incubations are run at a final P450 concentration of 0.25 μM. The microsomal mixture is composed of 0.1M potassium phosphate containing 3.3 mM MgCl and 1 μM compound (final concentration). The mixture is prewarmed for 5 min at 37° C. To initiate the reaction a 12 mM stock of NAPDH (1.2 mM, final concentration) is added to the warmed microsomal mixture and aliquots are removed at 0, 5, 10, 20 and 30 min. Samples are quenched with ice cold acetonitrile containing internal standard and either 1.8 mM EDTA or EGTA (final concentration). Samples are vortexed and spun down at 3200 rpm for 5 min. The supernant is transferred to 96-deep well plates and run on LC/MS/MS.

HSV-2 [5] = assay: Anti-HSV-2 replication assay in Vero cells, titers by plaque assay; type: cell-based, herpes simplex virus 2; details: Human alphaherpesvirus 2, Vero, 24 h; for log reduction at 5 µM: read-out: HSV-2 Log suppression 5 μM; for log reduction at 50 µM: read-out: HSV-2 Log suppression 50 μM
HSV = assay: Anti-HSV SAR summary, HSV type not separated; type: cell-based, herpes simplex virus; details: grouped by activity at 50, 5 and 0.5 μM
Outline: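 Confluent monolayers were infected with HSV-1 or HSV-2 at MOI 0.1 in the presence of compound at 50 and 5 µM for 1 h at 37 °C. Compound was then re-added in DMEM/2% newborn calf serum for 23 h more. Yield was titred by plaque assay on Vero cells, with DMSO controls. EC50 values came from serial dilutions starting at 50 µM, fitted by non-linear regression.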

HSV-1 [6] = assay: Anti-HSV-1 replication assay in Vero cells, titers by plaque assay; type: cell-based, herpes simplex virus 1; details: Human alphaherpesvirus 1, Vero, 24 h; for log reduction at 5 µM: read-out: HSV-1 Log suppression 5 μM; for log reduction at 50 µM: read-out: HSV-1 Log suppression 50 μM
Outline: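 Vero monolayers infected with clinical HSV-1 or HSV-2 isolates at MOI 0.1 with compound present (50 and 5 μM final), 1 h at 37° C, then compound in DMEM for another 23 h. Yield titered by plaque assay on Vero cells; EC50 by nonlinear fit of serial dilutions starting at 50 μM, DMSO controls.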

HBV = HBV replication assay in HepDES19 cells; type: cell-based; details: Hepatitis B virus; HepDES19 cells; read-out: EC50 (HBV assay)
Outline: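 HepDES19 cells induced by tetracycline withdrawal, then compound applied 48 h later in duplicate (1% DMSO final) and refreshed daily for two more days. After micrococcal nuclease digestion, capsid-associated HBV DNA purified and plus- and minus-strand DNA quantified by TaqMan PCR.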

Vero cells = assay: Qualitative (visual) Vero cell toxicity; type: cell-based; details: visual inspection in primary screen, key to t, T not given
Experimental: Qualitative assessments of cytotoxicity were done visually by inspecting the cells in the primary screening assays. For the quantitative assays, cells were plated in 96-well plates at 1.0×10^4 per well. The next day the compounds were added at 0.78 to 100 μM in a final concentration of 1% (v/v) DMSO, and the cells were incubated for 24 hours under conditions identical to those employed for the viral replication inhibition assays. Mitochondrial toxicity was measured by incubating the cells with 0.25 mg/mL thiazolyl blue tetrazolium bromide (MTT, Sigma Aldrich Chemical Co.), the cultures were incubated for 60 min, metabolites were solubilized in acidic isopropanol, and absorbance was read at 570 nm. CC50 values were calculated by non-linear curve fitting using GraphPad Prism.
Compound toxicity was measured both subjectively and quantitatively. Subjective assessments were done by visually inspecting the infected cells at the end of the 24 h infection window through a phase-contrast microscope.

SMILES | inhibition of four genotype D RNAseH enzymes ([1]; compound at its IC50, FIGS. 7A & 7B) | inhibition of all 12 variant RNAseH enzymes, in words ([1]; compound at its IC50, genotypes B, C and D) | suppression of HSV-1 replication in cell culture, in words (HSV-1 [2]) | suppression of HSV-2 replication in cell culture, in words (HSV-2 [3]) | weighted CI value (combination index) with Lamivudine (HBV replication) | CL ′hep [4] [mL/min/kg] | CL′int [4] [mL/min/kg] | Non-P450 turn-over [4] | t ½ [4] [min] | ER [4] | log reduction at 5 µM (HSV-2 [5]) | log reduction at 50 µM (HSV-2 [5]) | anti-HSV SAR group, in words (HSV) | log reduction at 5 µM (HSV-1 [6]) | log reduction at 50 µM (HSV-1 [6]) | EC50 (HBV) [nM] | Vero cell toxicity Qualitative (Vero cells) | half-life at 1 μM ([4]; read-out: t ½) [min] | CLint scaled at 1 μM ([4]; mouse, liver microsomes) [mL/min/kg] | predicted hepatic clearance at 1 μM ([4]; mouse, liver microsomes, read-out: CL ′hep) [mL/min/kg]
CC(C)c1ccc(O)c(=O)c(O)c1 [Compound 46, β-thujaplicinol, reference compound] | about 50% | Equivalent results | strongly suppress | strongly suppress | 0.44±0.3 | 70 | 318 | No | 16 | 0.78 | – | – | – | – | – | – | – | – | – | –
CC(=O)c1cc(O)c(=O)c(O)cc1C [Compound 110] | – | – | – | – | – | – | – | No | – | 0.22 | -0.65 | 4.24 | weakest inhibitors | -0.47 | 5.11 | 340 | t? | > 120 | 26 | 20
CCOC(=O)c1c(C)cc(O)c(=O)c(O)c1C [Compound 117] | – | – | – | – | – | – | – | – | – | – | -0.16 | 4.97 | weakest inhibitors | 0.76 | 4.66 | – | t? | – | – | –
